The source of these data is ChEMBL document CHEMBL4359843, “Linear and Rationally Designed Stapled Peptides Abrogate TLR4 Pathway and Relieve Inflammatory Symptoms in Rheumatoid Arthritis Rat Model” (J Med Chem, 2019).

Calls of active or inactive are those of the source. The calls are words filed in the database; no cut-off is given here. Where a SMILES comes first, the peptide text is derived from it. Bridges are numbered along the chain shown (N, C = ends).

Assay [1] has as its target T1, Toll-like receptor 4 (Mus musculus) (UniProt Q9QUK6).
T1 sequence (whole entry): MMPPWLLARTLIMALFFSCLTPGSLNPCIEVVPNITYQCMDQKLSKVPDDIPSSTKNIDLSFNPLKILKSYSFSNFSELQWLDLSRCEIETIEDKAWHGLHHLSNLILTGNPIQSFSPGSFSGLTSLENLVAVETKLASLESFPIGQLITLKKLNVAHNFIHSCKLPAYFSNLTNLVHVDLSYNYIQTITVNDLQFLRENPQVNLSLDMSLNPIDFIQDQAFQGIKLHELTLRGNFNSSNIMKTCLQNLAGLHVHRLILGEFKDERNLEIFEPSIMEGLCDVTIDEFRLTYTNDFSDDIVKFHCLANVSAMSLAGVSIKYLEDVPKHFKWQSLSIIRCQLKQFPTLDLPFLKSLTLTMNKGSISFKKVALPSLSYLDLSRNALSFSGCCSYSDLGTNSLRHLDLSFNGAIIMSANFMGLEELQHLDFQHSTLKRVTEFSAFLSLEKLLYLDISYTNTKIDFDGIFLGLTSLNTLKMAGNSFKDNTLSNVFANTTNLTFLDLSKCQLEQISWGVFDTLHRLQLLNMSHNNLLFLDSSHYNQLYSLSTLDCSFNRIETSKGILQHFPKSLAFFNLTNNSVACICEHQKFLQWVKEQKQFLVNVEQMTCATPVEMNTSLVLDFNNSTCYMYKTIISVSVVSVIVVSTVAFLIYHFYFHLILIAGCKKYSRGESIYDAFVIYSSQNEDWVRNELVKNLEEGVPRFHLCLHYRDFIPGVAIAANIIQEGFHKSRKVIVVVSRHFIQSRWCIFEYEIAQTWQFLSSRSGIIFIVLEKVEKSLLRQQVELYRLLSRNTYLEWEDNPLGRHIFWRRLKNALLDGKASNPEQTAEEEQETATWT
The assay can be described thus: Antagonist activity at TLR4 in mouse BMDM cells assessed as reduction in LPS-induced TNFalpha secretion at 20 to 80 uM after 24 hrs by ELISA. Type of assay: cell-based.

Assay [2] deals with T1, Toll-like receptor 4 (Mus musculus). The assay can be described thus: Antagonist activity at TLR4 in mouse RAW264.7 cells assessed as reduction in LPS-induced ERK phosphorylation at 80 uM after 15 to 30 mins by Western blot analysis. The format is cell-based. A general note: A western blot detects proteins with antibodies after separation by electrophoresis.
Assay [3] shares this target. The assay can be described thus: Antagonist activity at TLR4 in mouse RAW264.7 cells assessed as reduction in LPS-induced cytosolic ROS level at 80 uM by DCF-DA staining based FACS analysis. The format is cell-based.
Another assay addresses TLR2/TLR6 (Homo sapiens) (UniProt O60603+Q9Y2C9). Kind of assay: Antagonist activity at TLR2/6 in human PBMC cells assessed as reduction in FSL-1-induced IL6 secretion at 20 to 80 uM after 24 hrs by ELISA. Type of assay: cell-based. (In general: An ELISA detects its analyte on a solid surface through an enzyme-linked reagent.)
The next assay relates to Mus musculus. Kind of assay: Antiinflammatory activity in C57BL/6J mouse assessed as reduction in LPS-induced TNFalpha secretion at 70 nmol/g, ip pretreated for 1 hr followed by LPS challenge and measured after 2 hrs by ELISA. Type of assay: functional, organism-based.
For assay [4], the target named is Toll-like receptor 2 (Homo sapiens) (UniProt O60603). Kind of assay: Non-specific binding affinity to human TLR2 up to 200 uM by surface plasmon resonance analysis. For orientation: In SPR one partner is held on a chip, and binding of the other changes the refractive index at the surface.
Toll-like receptor 2 (Homo sapiens), sequence (O60603 whole entry): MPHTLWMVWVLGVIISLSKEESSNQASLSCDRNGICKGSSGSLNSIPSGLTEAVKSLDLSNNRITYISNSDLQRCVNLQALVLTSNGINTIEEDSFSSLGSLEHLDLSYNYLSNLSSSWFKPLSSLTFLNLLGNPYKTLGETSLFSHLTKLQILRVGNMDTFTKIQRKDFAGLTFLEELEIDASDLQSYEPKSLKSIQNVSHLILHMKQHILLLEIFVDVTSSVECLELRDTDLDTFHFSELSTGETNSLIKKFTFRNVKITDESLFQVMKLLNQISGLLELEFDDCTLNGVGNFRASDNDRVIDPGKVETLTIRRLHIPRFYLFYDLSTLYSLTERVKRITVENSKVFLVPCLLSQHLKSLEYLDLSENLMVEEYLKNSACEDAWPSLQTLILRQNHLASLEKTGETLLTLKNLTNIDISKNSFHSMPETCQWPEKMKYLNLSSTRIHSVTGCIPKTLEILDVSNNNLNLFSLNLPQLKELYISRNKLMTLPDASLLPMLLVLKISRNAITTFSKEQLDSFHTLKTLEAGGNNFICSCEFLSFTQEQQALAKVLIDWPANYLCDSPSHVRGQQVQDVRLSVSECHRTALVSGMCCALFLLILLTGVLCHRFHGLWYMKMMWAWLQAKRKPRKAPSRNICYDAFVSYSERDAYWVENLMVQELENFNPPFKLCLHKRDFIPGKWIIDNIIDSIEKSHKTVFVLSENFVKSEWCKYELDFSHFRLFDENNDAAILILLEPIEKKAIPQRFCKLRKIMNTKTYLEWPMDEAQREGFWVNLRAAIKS
Assay [5] addresses T2, Toll-like receptor 9 (Homo sapiens) (UniProt Q9NR96).
T2 sequence (whole entry): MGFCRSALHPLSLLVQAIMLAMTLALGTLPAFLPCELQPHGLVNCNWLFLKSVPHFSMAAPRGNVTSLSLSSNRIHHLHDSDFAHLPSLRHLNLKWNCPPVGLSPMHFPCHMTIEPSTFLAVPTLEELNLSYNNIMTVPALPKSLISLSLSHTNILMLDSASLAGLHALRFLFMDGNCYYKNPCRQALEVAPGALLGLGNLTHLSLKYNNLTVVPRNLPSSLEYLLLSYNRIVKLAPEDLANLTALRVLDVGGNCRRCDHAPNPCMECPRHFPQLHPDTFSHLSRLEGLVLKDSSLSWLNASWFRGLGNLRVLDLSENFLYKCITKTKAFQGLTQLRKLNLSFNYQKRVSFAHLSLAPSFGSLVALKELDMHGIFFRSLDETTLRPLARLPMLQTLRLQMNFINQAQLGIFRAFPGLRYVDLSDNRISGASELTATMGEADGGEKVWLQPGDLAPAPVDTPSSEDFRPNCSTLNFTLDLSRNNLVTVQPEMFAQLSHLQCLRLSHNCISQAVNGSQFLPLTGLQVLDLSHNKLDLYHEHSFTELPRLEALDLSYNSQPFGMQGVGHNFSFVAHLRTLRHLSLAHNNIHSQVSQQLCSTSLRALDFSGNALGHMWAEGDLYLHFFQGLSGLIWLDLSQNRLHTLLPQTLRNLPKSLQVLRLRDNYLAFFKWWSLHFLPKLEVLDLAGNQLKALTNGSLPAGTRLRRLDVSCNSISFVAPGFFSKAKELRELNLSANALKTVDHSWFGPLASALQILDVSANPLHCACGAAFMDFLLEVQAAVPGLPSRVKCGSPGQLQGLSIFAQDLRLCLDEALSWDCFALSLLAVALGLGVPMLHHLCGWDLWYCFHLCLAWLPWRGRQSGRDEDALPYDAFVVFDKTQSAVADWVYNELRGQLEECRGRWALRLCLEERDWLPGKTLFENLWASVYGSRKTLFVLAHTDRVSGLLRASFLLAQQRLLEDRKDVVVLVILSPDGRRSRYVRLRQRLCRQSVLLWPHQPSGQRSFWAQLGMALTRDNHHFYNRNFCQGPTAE
Kind of assay: Antagonist activity at TLR9 in human THP1 cells assessed as reduction in CpG ODN-induced IL6 secretion at 50 uM after 24 hrs by ELISA. Type of assay: cell-based.

In assay [6] the target is T3, Toll-like receptor 4 (Homo sapiens, UniProt O00206). Kind of assay: Antagonist activity at TLR4 in human THP1 cells assessed as reduction in LPS-induced p38 phosphorylation at 50 uM after 15 to 30 mins by Western blot analysis. Type of assay: cell-based.
T3 sequence (O00206 whole entry): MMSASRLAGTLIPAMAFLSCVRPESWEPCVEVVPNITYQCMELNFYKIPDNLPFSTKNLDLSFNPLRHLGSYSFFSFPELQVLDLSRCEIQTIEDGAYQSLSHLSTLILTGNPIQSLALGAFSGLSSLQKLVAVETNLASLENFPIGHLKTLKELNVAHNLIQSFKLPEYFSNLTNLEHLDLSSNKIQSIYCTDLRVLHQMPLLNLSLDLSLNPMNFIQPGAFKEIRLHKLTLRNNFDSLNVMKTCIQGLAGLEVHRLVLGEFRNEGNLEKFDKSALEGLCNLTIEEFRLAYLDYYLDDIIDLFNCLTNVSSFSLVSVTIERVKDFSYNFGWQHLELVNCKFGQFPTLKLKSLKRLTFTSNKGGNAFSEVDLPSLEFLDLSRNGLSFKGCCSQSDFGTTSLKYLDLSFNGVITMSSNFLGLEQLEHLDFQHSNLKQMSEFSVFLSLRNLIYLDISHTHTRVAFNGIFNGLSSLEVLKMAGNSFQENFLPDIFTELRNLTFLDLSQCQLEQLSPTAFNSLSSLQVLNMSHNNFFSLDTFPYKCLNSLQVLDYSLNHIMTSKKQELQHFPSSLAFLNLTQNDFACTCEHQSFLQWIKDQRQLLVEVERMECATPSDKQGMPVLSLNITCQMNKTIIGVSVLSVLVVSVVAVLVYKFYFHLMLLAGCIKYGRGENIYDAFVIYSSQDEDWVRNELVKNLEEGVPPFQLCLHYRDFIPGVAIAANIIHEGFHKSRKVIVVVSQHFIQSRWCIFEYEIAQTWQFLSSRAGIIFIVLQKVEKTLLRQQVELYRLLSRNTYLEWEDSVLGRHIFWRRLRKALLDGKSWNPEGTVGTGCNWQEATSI
For assay [7], the target named is T3, Toll-like receptor 4. Kind of assay: Antagonist activity at TLR4 in human THP1 cells assessed as reduction in LPS-induced ATF3 activation at 50 uM after 120 to 240 mins by Western blot analysis. The format is cell-based.
Assay [8] has as its system Rattus norvegicus. Kind of assay: Antiarthritic activity in Lewis rat model of complete Freund's adjuvant-induced arthritis assessed as reduction in ankle diameter at 1 nmol/g administered intra-articularly into knee joint for 6 weeks and measured every week during compound dosing by vernier caliper analysis. The format is functional, organism-based.
For assay [9], the system named is Rattus norvegicus. The assay can be described thus: Antiarthritic activity in Lewis rat model of complete Freund's adjuvant-induced arthritis assessed as reduction in inflammation synovial tissues at 1 nmol/g administered intra-articularly into knee joint after 1 week by Safranin-O staining based histopathological analysis. The format is functional, organism-based.

The subject of assay [10] is Rattus norvegicus. The assay can be described thus: Antiarthritic activity in Lewis rat model of complete Freund's adjuvant-induced arthritis assessed as appearance of rounded mature chondrocytes surrounded by GAG deposition at 1 nmol/g administered intra-articularly into knee joint and measured on third week by Safranin-O staining based histopathological analysis. Type of assay: functional, organism-based.

Assay [11] deals with T3, Toll-like receptor 4. The assay can be described thus: Antagonist activity at TLR4 in human THP1 cells assessed as reduction in LPS-induced IRF3 phosphorylation at 50 uM after 120 to 240 mins by Western blot analysis. Type of assay: cell-based.

As to H-LGVFSSWWIKLV-OH, the outcome (in assay [1]; in assay [2]; in assay [3]; in the assay with Mus musculus; in assay [4]) was Active. The result at TLR2/TLR6 (Homo sapiens) was inactive.

In the case of `CC[C@H](C)[C@@H]1NC(=O)[C@H](Cc2c[nH]c3ccccc23)NC(=O)[C@H](Cc2c[nH]c3ccccc23)NC(=O)[C@@H](NC(=O)[C@H](CO)NC(=O)[C@H](Cc2ccccc2)NC(=O)[C@@H](NC(=O)CNC(=O)[C@@H](N)CC(C)C)C(C)C)CC(=O)NCCCC[C@@H](C(=O)N[C@@H](CC(C)C)C(=O)N[C@H](C(=O)O)C(C)C)NC1=O` (H-LGVFSDWWIKLV-OH; lactam 6-10), the result (in assay [5]; at Toll-like receptor 4 [6]; at Toll-like receptor 4 [7]; in the assay on Rattus norvegicus [8]; in the assay on Rattus norvegicus [9]; in the assay with Rattus norvegicus [10]) was Active. Besides, the result on Toll-like receptor 4 [11] was Active.
